EC50 and IC50 data for 17 compounds are collected here from patent US10316017B2, “COT modulators and methods of use thereof” (Gilead Sciences, Inc., priority 2015, dated 2019).

Test [1] has as its system TNFα production in LPS-stimulated human monocytes. Briefly: Cot Monocyte TNFα Cell Based Assay. Particulars: read-out: EC50 TNF. In short, it runs like this:
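TR-FRET read-out of total secreted TNFα, normalized as % control (unstimulated = 0%, LPS-stimulated = 100%). Cells (5,000/well) were exposed to compound 1 h at 37 °C, then to 50 pg/ml LPS for a further 4 h.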

For test [2], the target named is T1, human Cot catalytic domain (30-397 amino acids) (Homo sapiens, UniProt P41279).
T1 construct: Purified recombinant human Cot catalytic domain (30-397 amino acids) was purchased from Cama Biosciences; purchased Cama Biosciences (so in the source)
T1 sequence (P41279 30-397): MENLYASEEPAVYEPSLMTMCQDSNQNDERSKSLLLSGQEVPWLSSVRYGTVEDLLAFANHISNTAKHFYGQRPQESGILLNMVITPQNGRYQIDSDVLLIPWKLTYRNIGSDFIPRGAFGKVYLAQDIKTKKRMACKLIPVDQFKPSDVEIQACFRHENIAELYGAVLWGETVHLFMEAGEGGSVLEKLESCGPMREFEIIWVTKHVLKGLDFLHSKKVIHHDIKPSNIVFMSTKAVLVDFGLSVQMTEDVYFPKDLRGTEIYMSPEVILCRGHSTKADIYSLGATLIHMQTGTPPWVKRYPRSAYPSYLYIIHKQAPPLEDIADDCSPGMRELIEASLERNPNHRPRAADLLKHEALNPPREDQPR
Nature of the test: High Throughput Cot Biochemical Assay (KinEASE TR-FRET). Particulars: read-out: IC50 HTRF. In short, it runs like this: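 TR-FRET readout: Eu-labeled phospho-specific antibody binds XL665-tagged STK3 peptide after phosphorylation by Cot (aa 30-397, 5 nM). Conditions: 400 μM ATP, 1 μM peptide, MOPS pH 7.0 buffer with MgOAc, DTT, BSA, NP-40, glycerol; 0.1% DMSO.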

Where [3] appears, read: Homo sapiens, Monocyte, LPS-stimulated human monocytes, TNFα TR-FRET.
The mark [4] stands for this setting: Cot KinEASE TR-FRET, 400 μM ATP.
[5] abbreviates: Homo sapiens, Monocyte, TNFα in LPS-stimulated human monocytes.
The mark [6] stands for this setting: Cot biochemical HTRF (KinEASE TR-FRET) assay.
[7] abbreviates: Cot KinEASE TR-FRET (HTRF) biochemical assay, 400 μM ATP.

Read-outs that look alike come from different tables or passages of the source. Some results are limits rather than exact numbers.

The term EC50 denotes the concentration needed to bring the measured effect to its halfway point. As usually defined, the IC50 is the concentration that gives 50% inhibition. `[2H][C@](Nc1cc(C#N)c2ncc(C#N)c(NCC(C)(C)C)c2c1)(c1ccc(F)cc1)c1cn(C2(CF)CC2)nn1` [Example 1006, (S)-6-(((1-(1-(fluoromethyl)cyclopropyl)-1H-1,2,3-triazol-4-yl)(4-fluorophenyl)methyl-d)amino)-4-(neopentylamino)quinoline-3,8-dicarbonitrile]: the EC50 in test [1] (setting [3]) was found to be 72 nM. Also, in test [2] (setting [4]), the IC50 amounted to 9 nM.
`N#Cc1cnc2c(Cl)cc(N[C@@H](c3ccc(Cl)cc3)c3c[nH]nn3)cc2c1Nc1cc(F)c(F)cc1F` [Example 647, (S)-8-chloro-6-(((4-chlorophenyl)(1H-1,2,3-triazol-4-yl)methyl)amino)-4-((2,4,5-trifluorophenyl)amino)quinoline-3-carbonitrile]: the EC50 in test [1] (setting [5]) was found to be 3240 nM. In addition, the IC50 in test [2] (setting [6]) came out at 377 nM.
Consider `CC(C)(C)N1CCC(n2cc([C@@H](Nc3cc(Cl)c4ncc(C#N)c(Nc5ccc(F)c(OC(F)(F)F)c5)c4c3)c3ccccc3)nn2)CC1` [Example 525, (S)-6-(((1-(1-(tert-butyl)piperidin-4-yl)-1H-1,2,3-triazol-4-yl)(phenyl)methyl)amino)-8-chloro-4-((4-fluoro-3-(trifluoromethoxy)phenyl)amino)quinoline-3-carbonitrile], for which, in test [1] (setting [5]), the concentration giving a half-maximal response (EC50) turned out to be 4260 nM. Also, the half-inhibitory concentration (IC50) in test [2] (setting [6]) was determined as 726 nM.
On to `CC(C)(C)CNc1c(C#N)cnc2c(C#N)cc(N[C@@H](c3ccccc3)c3cn(C4(C(N)=O)CC4)nn3)cc12` [Example 975, (S)-1-(4-(((3,8-dicyano-4-(neopentylamino)quinolin-6-yl)amino)(phenyl)methyl)-1H-1,2,3-triazol-1-yl)cyclopropane-1-carboxamide], for which the half-maximal effective concentration (EC50) in test [1] (setting [3]) came to 321 nM. The IC50 in test [2] (setting [4]) came out at 3 nM.
As for `Cn1cc(C(Nc2cc(Cl)c3ncc(C#N)c(Nc4ccc(F)c(Cl)c4)c3c2)c2ccc(Cl)cc2)nn1` (stereo not shown) [Example 881, 8-chloro-4-((3-chloro-4-fluorophenyl)amino)-6-(((4-chlorophenyl)(1-methyl-1H-1,2,3-triazol-4-yl)methyl)amino)quinoline-3-carbonitrile], the EC50 in test [1] (setting [5]) was 673 nM. For the same compound, the half-inhibitory concentration (IC50) in test [2] (setting [6]) came to 39 nM.
For the compound `CCN1CCC(n2cc(C(Nc3cc(Cl)c4ncc(C#N)c(Nc5ccc(F)c(Cl)c5)c4c3)c3ccc(F)cc3C)nn2)CC1` (stereo not shown) [Example 885, 8-chloro-4-((3-chloro-4-fluorophenyl)amino)-6-(((1-(1-ethylpiperidin-4-yl)-1H-1,2,3-triazol-4-yl)(4-fluoro-2-methylphenyl)methyl)amino) quinoline-3-carbonitrile], the EC50 in test [1] (setting [5]) is 287 nM. Further, in test [2] (setting [6]), the IC50 worked out at 9 nM.
For `N#Cc1cnc2c(Cl)cc(N[C@@H](c3ccc(F)cc3)c3c[nH]nn3)cc2c1NC1CCCC(O)C1` (stereo partly drawn) [Example 439, 8-chloro-6-(((S)-(4-fluorophenyl)(1H-1,2,3-triazol-4-yl)methyl)amino)-4-((3-hydroxycyclohexyl)amino) quinoline-3-carbonitrile], in test [1] (TNFα in LPS-stimulated human monocytes), the EC50 was more than 10000 nM. In addition, in test [2] (setting [6]), the half-inhibitory concentration (IC50) was determined as 2960 nM.
For `CN(C)Cc1ccc(Nc2c(C#N)cnc3c(Cl)cc(N[C@@H](c4ccc(Cl)cc4)c4cn(C5CCN(C(C)(C)C)CC5)nn4)cc23)cc1` [Example 684, (S)-6-(((1-(1-(tert-butyl)piperidin-4-yl)-1H-1,2,3-triazol-4-yl)(4-chlorophenyl)methyl)amino)-8-chloro-4-((4-((dimethylamino)methyl)phenyl)amino)quinoline-3-carbonitrile], the EC50 in test [1] (setting [5]) turned out to be 6040 nM. The IC50 in test [2] (setting [6]) was 7350 nM.
Turning to `[2H][C@@](Nc1cc(C#N)c2ncc(C#N)c(NCC(C)(C)C)c2c1)(c1cn(C(C)(C)C)nn1)c1ccccc1Cl` [Example 1029, (S)-6-(((1-(tert-butyl)-1H-1,2,3-triazol-4-yl)(2-chlorophenyl)methyl-d)amino)-4-(neopentylamino)quinoline-3,8-dicarbonitrile], in test [1] (setting [3]), the concentration giving a half-maximal response (EC50) stood at 225 nM. Further, the concentration for half-maximal inhibition (IC50) in test [2] (setting [4]) was 14 nM.
Consider `[2H][C@](Nc1cc(Cl)c2ncc(C#N)c(NCC(C)(C)C)c2c1)(c1ccc(Cl)cc1)c1cn(C23CCN(CC2)CC3)nn1` [Example 1010, (S)-8-chloro-6-(((4-chlorophenyl)(1-(quinuclidin-4-yl)-1H-1,2,3-triazol-4-yl)methyl-d)amino)-4-(neopentylamino)quinoline-3-carbonitrile], for which the EC50 in test [1] (Homo sapiens, Monocyte) stood at 928 nM. The IC50 in test [2] (setting [4]) was 69 nM.
For the compound `[2H][C@](Nc1cc(C#N)c2ncc(C#N)c(NCC(C)(C)C)c2c1)(c1cccc(C#N)c1)c1cn(C2CC2)nn1` [Example 240, (S)-6-(((3-cyanophenyl)(1-cyclopropyl-1H-1,2,3-triazol-4-yl)methyl-d)amino)-4-(neopentylamino)quinoline-3,8-dicarbonitrile], the concentration giving a half-maximal response (EC50) in test [1] (setting [5]) amounted to 71 nM. For the same compound, the half-maximal inhibitory concentration (IC50) in test [2] (setting [7]) was 1 nM.
In the case of `Cc1c(C#N)cccc1[C@H](Nc1cc(Cl)c2ncc(C#N)c(NCC(C)(C)C(F)(F)F)c2c1)c1cn(C2(C3CC3)CC2)nn1` [Example 1105, (S)-6-(((1-([1,1'-bi(cyclopropan)]-1-yl)-1H-1,2,3-triazol-4-yl)(3-cyano-2-methylphenyl)methyl)amino)-8-chloro-4-((3,3,3-trifluoro-2,2-dimethylpropyl)amino)quinoline-3-carbonitrile], the concentration giving a half-maximal response (EC50) in test [1] (setting [3]) worked out at 90 nM. In addition, in test [2] (setting [4]), the 50% inhibitory concentration (IC50) is 5 nM.
Take `N#Cc1cnc2c(Cl)cc(N[C@@H](c3ccccc3)c3cn(CC(=O)N4CCOCC4)nn3)cc2c1Nc1ccc(F)c(Cl)c1` [Example 746, (S)-8-chloro-4-((3-chloro-4-fluorophenyl)amino)-6-(((1-(2-morpholino-2-oxoethyl)-1H-1,2,3-triazol-4-yl)(phenyl)methyl)amino) quinoline-3-carbonitrile]: in test [1] (setting [5]), the concentration giving a half-maximal response (EC50) stood at 349 nM. The 50% inhibitory concentration (IC50) in test [2] (setting [6]) turned out to be 29 nM.
For `CC(=O)N(C)c1cccc([C@H](Nc2cc(Cl)c3ncc(C#N)c(Nc4cnc(F)c(F)c4)c3c2)c2c[nH]nn2)c1` [Example 496, (S)-N-(3-(((8-chloro-3-cyano-4-((5,6-difluoropyridin-3-yl)amino)quinolin-6-yl)amino)(1H-1,2,3-triazol-4-yl)methyl)phenyl)-N-methylacetamide], in that order: 1840 nM and 4 nM.
Take `N#Cc1cnc2c(Cl)cc(N[C@@H](c3ccc(F)cc3)c3c[nH]nn3)cc2c1Nc1cccnc1F` [Example 373, (S)-8-chloro-6-(((4-fluorophenyl)(1H-1,2,3-triazol-4-yl)methyl)amino)-4-((2-fluoropyridin-3-yl)amino)quinoline-3-carbonitrile]: in test [1] (setting [5]), the EC50 worked out at 7520 nM. Moreover, in test [2] (setting [7]), the half-maximal inhibitory concentration (IC50) worked out at 3010 nM.
On the same counts, the results for `[2H][C@](Nc1cc(Cl)c2ncc(C#N)c(NCC(C)(C)C)c2c1)(c1cn(CC#N)nn1)c1ccccc1Cl` [Example 119, 8-chloro-6-(((2-chlorophenyl)(1-(cyanomethyl)-1H-1,2,3-triazol-4-yl)methyl-d)amino)-4-(neopentylamino) quinoline-3-carbonitrile] are 166 nM and 26 nM.
On the same counts, the results for `N#Cc1cnc2c(Cl)cc(N[C@@H](c3cccc(F)c3)c3cn(C4CC4)nn3)cc2c1Nc1cnc(F)c(F)c1` [Example 265, (S)-8-chloro-6-(((1-cyclopropyl-1H-1,2,3-triazol-4-yl)(3-fluorophenyl)methyl)amino)-4-((5,6-difluoropyridin-3-yl)amino)quinoline-3-carbonitrile] are 471 nM and 12 nM.
